These results are taken from ChEMBL document CHEMBL4715826, “Selective PPARδ Modulators Improve Mitochondrial Function: Potential Treatment for Duchenne Muscular Dystrophy (DMD)” (ACS Med Chem Lett, 2018).

Calls of active or inactive are those of the source. No cut-off for these calls is given here.

For series [1], the target named is T1, Peroxisome proliferator-activated receptor gamma (Homo sapiens, UniProt P37231).
T1 sequence (P37231 whole entry): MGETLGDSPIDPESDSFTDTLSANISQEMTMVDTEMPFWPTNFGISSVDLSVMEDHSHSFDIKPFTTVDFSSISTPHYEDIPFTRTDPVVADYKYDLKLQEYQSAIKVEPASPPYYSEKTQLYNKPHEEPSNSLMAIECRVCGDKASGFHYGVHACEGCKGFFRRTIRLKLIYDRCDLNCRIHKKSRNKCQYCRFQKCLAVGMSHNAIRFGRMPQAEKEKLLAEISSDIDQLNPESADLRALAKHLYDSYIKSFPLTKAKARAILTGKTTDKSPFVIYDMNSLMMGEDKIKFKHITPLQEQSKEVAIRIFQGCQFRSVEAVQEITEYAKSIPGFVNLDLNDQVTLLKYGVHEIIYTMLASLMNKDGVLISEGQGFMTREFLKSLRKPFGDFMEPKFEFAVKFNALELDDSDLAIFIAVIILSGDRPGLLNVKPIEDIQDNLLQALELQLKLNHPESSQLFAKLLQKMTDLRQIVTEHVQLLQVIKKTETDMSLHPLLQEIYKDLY
The series can be described thus: Modulator activity at GAL4-fused human PPARgamma LBD (unknown origin) transfected in African green monkey CV1 cells assessed as receptor transactivation by luciferase reporter gene assay. The series is classed as cell-based, CV-1.

The nature of series [2]: Half life in CD-1 mouse at 3 mg/kg, iv. To be noted: in vivo. The series is classed as ADME, organism-based.
The target of series [3] is T2, Peroxisome proliferator-activated receptor delta (Mus musculus, UniProt P35396).
T2 sequence (P35396 whole entry): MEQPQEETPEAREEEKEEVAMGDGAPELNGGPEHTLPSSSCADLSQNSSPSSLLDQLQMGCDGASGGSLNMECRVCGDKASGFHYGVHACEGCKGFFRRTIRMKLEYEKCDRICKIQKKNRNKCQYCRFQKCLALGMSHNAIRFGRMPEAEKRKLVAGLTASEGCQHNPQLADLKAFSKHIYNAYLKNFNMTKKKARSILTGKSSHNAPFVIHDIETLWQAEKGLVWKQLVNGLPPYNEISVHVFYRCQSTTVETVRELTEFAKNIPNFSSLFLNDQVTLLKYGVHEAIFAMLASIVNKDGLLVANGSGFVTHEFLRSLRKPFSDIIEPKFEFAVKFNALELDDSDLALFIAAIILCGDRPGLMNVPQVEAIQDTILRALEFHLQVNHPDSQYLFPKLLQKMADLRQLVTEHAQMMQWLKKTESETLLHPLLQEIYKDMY
The series can be described thus: Modulator activity at mouse PPARdelta.

Series [4] can be described thus: Protein binding in human plasma. It counts as ADME, cell-free. To be noted: read-out: PPB.
Another series concerns the target CYP2C9 (Homo sapiens, UniProt P11712). The series is described as follows: Inhibition of CYP2C9 (unknown origin) at 10 uM relative to control. The series is classed as ADME.
A short description of series [5]: Oral bioavailability in Wistar rat at 3 mg/kg. It counts as ADME, organism-based. The settings on record: in vivo.
Series [6] in a line: Volume of distribution at steady state in cynomolgus monkey at 3 mg/kg, iv. The series is classed as ADME, organism-based, Macaca fascicularis. The settings on record: in vivo.
A short description of series [7]: AUC in cynomolgus monkey at 3 mg/kg, iv. It counts as ADME, organism-based, Macaca fascicularis. Also on record: dose 3 mg/kg. To be noted: in vivo.
Series [8] is described as follows: Oral bioavailability in cynomolgus monkey at 10 mg/kg. The series is classed as ADME, organism-based, Macaca fascicularis. The settings on record: in vivo.
A further series concerns Mus musculus. The series can be described thus: In vivo modulator activity at PPARdelta in C57BL/6JRccHsd mouse skeletal muscle assessed as increase in Pdk4 gene expression at 30 to 100 mg/kg, po administered for 9 days and measured at 2 hrs after final administration by qPCR analysis. The settings on record: dose 30-100 mg/kg, time 9.0 day. The series is classed as functional, organism-based.

Series [9] is described as follows: Mutagenicity in Salmonella typhimurium by mini Ames test. It counts as toxicity. The settings on record: salmonella enterica subsp. enterica serovar typhimurium.
For series [10], the target named is T3, Peroxisome proliferator-activated receptor delta (Mus musculus) (UniProt P35396).
T3 sequence (whole entry): T2 sequence (P35396 whole entry)
The series is described as follows: Modulator activity at PPARdelta in […] primary myoblasts derived from DMD patient assessed as upregulation of ANGPTL4 gene expression at 0.4 nM measured after 48 hrs. To be noted: Primary myotube, filed as modulator. The series is classed as tissue-based.

Series [11] addresses T3, Peroxisome proliferator-activated receptor delta (Mus musculus). The series is described as follows: Modulator activity at PPARdelta in […] primary myoblasts derived from DMD patient assessed as upregulation of PDK4 gene expression at 0.4 nM measured after 48 hrs. The series is classed as tissue-based. To be noted: Primary myotube, filed as modulator.

Chain of CYP2C9 (P11712 whole entry): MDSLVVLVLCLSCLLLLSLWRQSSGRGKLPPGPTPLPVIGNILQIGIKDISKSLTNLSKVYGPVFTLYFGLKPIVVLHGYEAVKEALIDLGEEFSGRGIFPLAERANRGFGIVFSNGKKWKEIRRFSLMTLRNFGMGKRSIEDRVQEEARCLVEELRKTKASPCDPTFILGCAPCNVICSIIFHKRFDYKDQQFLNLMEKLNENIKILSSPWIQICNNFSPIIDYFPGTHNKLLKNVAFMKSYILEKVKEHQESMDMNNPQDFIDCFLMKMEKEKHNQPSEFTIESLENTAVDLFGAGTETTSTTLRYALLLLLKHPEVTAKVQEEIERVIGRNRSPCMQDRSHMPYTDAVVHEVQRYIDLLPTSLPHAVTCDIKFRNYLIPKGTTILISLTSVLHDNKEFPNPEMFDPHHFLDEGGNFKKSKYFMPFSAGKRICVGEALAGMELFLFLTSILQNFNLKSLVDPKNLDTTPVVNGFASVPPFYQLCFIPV

On to `Cc1cnc(-c2ccc(OC(F)(F)F)cc2)n1Cc1ccccc1OCCC[C@@H](C)CC(=O)O`, for which the EC50 was over 10000 nM in series [1] and 7.9 nM in [3]. Further, the half-life in [2] was 3.3 h. The fraction unbound in series [4] was 0.001. Testing at 10 µM at CYP2C9 gave an inhibition of 56%. The results for the bioavailability in [5] and in series [8] were 90% and 13%, respectively. Further, in series [6], the Vdss turned out to be 3.2 L/kg. In series [7], this compound registered an exposure (AUC) of 8400 ng·h/mL. In addition, the outcome in the series with Mus musculus was Active. For the same compound, the Activity result in series [9] was “Non-Toxic”; in [10] it was 98%; in [11], 98%.
